In brackets after ≈: the same amount, converted by molar mass.
Columns and labels:
platelet aggregation [1] = test: extra vivo platelet aggregation inhibiting activity after oral administration, collagen as aggregating agent; format: in vivo, guinea pigs; conditions: Cavia porcellus, po
Description: The collagent floating solution made by Hormone Company of west Germany was diluted with physiological saline to a concentration of 100 µg/ml for use in the test.
(§1) The platelet aggregation inhibiting activities extra vivo of drugs sampled at random were examined using guinea pigs.
(§2) The drugs were used dissolved in propylene glycol to a concentration of 1 mg/ml (when the dosage was 1 mg/kg), 10 mg/ml (when the dosage was 10 mg/kg), and 30 mg/ml (when the dosage was 30 mg/kg). The drugs were administered orally to male Hartley guinea pigs (three in a group) having a body weight of 300 to 350 g. Propylene glycol was administered to a control group.
(§3) One hour, or 4 hours after the administration, citrated blood was taken out from the subject by cardiac puncture.
(§4) The guinea pigs were caused to fast overnight before use.
(§5) The inhibiting rate of the test drugs was measured as follows: • 450 µℓ of PRP was put into a cuvette of an aggregometer, and then 50 µℓ of the aggregating agent was added. The aggregation curve was recorded for 3 minutes, and the maximum degree of aggregation was measured. As a blank, the maximum degree of aggregation of PRP of the group of guinea pigs to which propylene glycol had been administered was measured. The rate of inhibition was calculated from the following equation. [formula]
(§6) As the aggregating agent, 0.03 mM (final concentration sodium arachidonate and 5 µg/ml (final concentration) collagen floating solution were used.
For details of the extra vivo platelet aggregation inhibiting test, see Davis. H. M., Phyllis, J., Paul, K and Terry, W.: Thromb. Res. 11, 217-226 (1977) and Anderson R. E. and Foulks J. G.: Thromb. Haemos. 36, 343-359 (1976).

platelet aggregation [2] = test: extra vivo platelet aggregation inhibiting activity after oral administration, sodium arachidonate as aggregating agent; format: in vivo, guinea pigs; conditions: Cavia porcellus, 0.03 mM sodium arachidonate; for inhibition at 10 mg/kg: oral dosage 10 mg/kg; for inhibition at 1 mg/kg: oral dosage 1 mg/kg
Description: as §1, §2, §3, §4, §5, §6
For details of the extra vivo platelet aggregation inhibiting test, see Davis. H. M., Phyllis, J., Paul, K and Terry, W.: Thromb. […] Haemos.

platelet aggregation [3] = test: in vitro platelet aggregation inhibiting activity (sodium arachidonate as aggregating agent); format: cell-based; conditions: Cavia porcellus, Platelet, guinea pigs PRP, final concentration 0.1 millimole, minimum final concentration whose inhibiting rate exceeded 50 %, read-out: IC50
Description: The platelet aggregation inhibiting activities in vitro of test drugs including the acylated indole derivatives of this invention were assayed using guinea pigs PRP.
As an aggregating agent, sodium arachidonate having a final concentration of 0.1 millimole was used.
The citrated blood was centrifuged at 1000 rpm for 10 minutes at room temperature, and the supernatant liquid (PRP) was separated.
The resulting PRP was stored at room temperature, and used as early as possible. PRP stored for more than 4 hours was not used.
A compound having a free carboxylic acid as a residue, such as Indomethacin and Ibprofen, was dissolved in O.lM NaHC03 to provide a sodium salt solution having a concentration of 10 mg/ml. The solution was similarly diluted with physiological saline to prepare a solution of a test drug.
The solution was diluted with physiological saline to form a 1mM solution which was used in the test.
50 µℓ of physiological saline and 50 µℓ of the aggregating agent solution were added to 400 µℓ of PRP which had been warmed in a cuvette at 37°C in an aggregometer to aggregate the platelet. The aggregation curve was recorded for 3 minutes by an aggregometer (a product of Bryston Company). The maximum degree of aggregation in this platelet aggregation was defined as the maximum degree of aggregation in the blank.
Then, 50 µℓ of a 1mM solution of sodium arachidonate was added, and the platelet aggregation curve was recorded in the same way as in (1) above. From the curve, the maximum degree of aggregation was calculated, and the inhibiting rate was calculated in accordance with the following equation. Maximum degree of aggregation Inhibiting 100 - in the Ibprofen-added system 100 rate (%) Maximum degree of aggregation in the blank
If these inhibiting rates are not attained, the concentration of the solution of sodium arachidonate is not suitable, and therefore, its concentration should be re-adjusted, and the test shall be performed again.
50 µℓ of the test compound solution was added to 400 µℓ of PRP, and the mixture was pre-incubated in the same way as in(2) above. Then, 50 µℓ of the solution of sodium arachidonate having its concentration adjusted in (2) was added, and the aggregation curve was recorded for 3 minutes. The maximum degree of aggregation of platelet within this period was measured, and the rate of inhibition was calculated from the following equation. […] Maximum degree of aggregation Inhibiting _ 100 - in the drug-added system x 100 rate (%) Maximum degree of aggregation in the blank
For details of the in vitro platelet aggregation inhibiting test, see H. M. Davis, J. Phyllis, K. Paul and W. Terry: Thromb. […] Haemos.

[4] = tested on: mucous membrane of the stomach; test: Action of causing trouble to the mucous membrane of the stomach (ulcer index); format: in vivo, Male S.D. rats; conditions: fasted rats
Description: Male S.D. rats (7 weeks old) were caused to fact for 24 hours while allowing them to drink water freely. A test compound dissolved in propylene glycol was orally administered to these rats, and these rats were kept while causing them to fast. Then, the rats were knocked out to death, and lesions generated in the stomach were measured in the following manner.
Ten minutes before killing the rats, 1% Evans blue was intravenously injected to the rats in a dose of 0.5 ml/rat to stain their body. Then, the rats were knocked out to death, and the stomack was taken out from each rat. 12 ml of 1% formalin was injected into the stomack to inflate it. The stomach was then dipped for more than 10 minutes in a 1% formalin solution, and fixed. After fixing, the stomach was incised along the glandular portion, and the length of a dye-leaked portion that occurred in the stomach was measured under a solid microscope, and defined as the ulcer index (mm).
For details of the test on the action of causing trouble to the mucous membrane of the stomach, see E. Adami, E. Marazzi-Uberti, and C. Turba, Arch, int. Pharmacadyn., 147, 113 (1964).

[5] = 1 h, read-out: Rate of inhibition of platelet aggregation, Collagen, After 1 hour
[6] = 4 h, read-out: Rate of inhibition of platelet aggregation, Collagen, After 4 hours
[7] = blood taken 1 hour after administration, read-out: Rate of inhibition of platelet aggregation, Sodium arachidonate, After 1 hour
[8] = blood taken 4 hours after administration, read-out: Rate of inhibition of platelet aggregation, Sodium arachidonate, After 4 hours
[9] = oral dosage 400 mg/kg in propylene glycol
[10] = oral dosage 100 mg/kg in propylene glycol
[11] = oral dosage 200 mg/kg in propylene glycol

Compound	inhibition at 10 mg/kg (platelet aggregation [1]; [5])	inhibition at 10 mg/kg (platelet aggregation [1]; [6])	inhibition at 10 mg/kg (platelet aggregation [2]; [7])	inhibition at 10 mg/kg (platelet aggregation [2]; [8])	IC50 (platelet aggregation [3])	other results
Cc1c(C(=O)c2ccccc2)c2ccccc2n1C(C)CSc1ccccc1 (stereo not shown) [(401), 3-Benzoyl-2-methyl-1-(1-phenylthio-2-propyl)-indole]	100%	100%	100%	100%	0.25 µg/mL (≈ 0.648 µM)	
CCCCCC(C)n1c(C)c(C(=O)c2ccccc2)c2ccccc21 (stereo not drawn) [(706), 3-Benzoyl-l-(2-heptyl)-2-methylindole]						Incidence [4, 9]: 16.7%; Ulcer Index (mm ± S.E.) [4, 9]: 0.1 mm
CCC(COC)n1c(C)c(C(=O)c2ccccc2)c2ccccc21 (stereo not shown) [(311), 3-Benzoyl-1-(1-methoxy-2-butyl)-2-methylindole]	100%	81.1%	68.8%	100%	0.25 µg/mL (≈ 0.778 µM)	
CC(C)c1[nH]c2ccccc2c1C(=O)c1cccnc1 [Comparison 3, reference compound]					0.075 µg/mL (≈ 0.284 µM)	Incidence [4, 10]: 66.7%; Ulcer Index (mm ± S.E.) [4, 10]: 1.5 ± 0.6 mm; Incidence [4, 9]: 100%; Ulcer Index (mm ± S.E.) [4, 9]: 7.9 ± 2.3 mm
CC(=O)OCCC(C)n1c(C)c(C(=O)c2ccccc2)c2ccccc21 (stereo not shown) [(201), 1-(4-acetoxy-2-butyl)-3-benzoyl-2-methylindole]	100%	100%	100%	100%	0.075 µg/mL (≈ 0.215 µM)	
COCC(C)n1c(C)c(C(=O)c2ccccc2)c2ccccc21 (stereo not shown) [(300), 3-Benzoyl-1-(1-methoxy-2-propyl)-2-methylindole]					0.055 µg/mL (≈ 0.179 µM)	inhibition at 1 mg/kg (platelet aggregation [1]; [5]): 100%; inhibition at 1 mg/kg (platelet aggregation [1]; [6]): 71.4%; Incidence [4, 10]: 40%; Ulcer Index (mm ± S.E.) [4, 10]: 1.1 ± 0.5 mm; Incidence [4, 11]: 55.6%; Ulcer Index (mm ± S.E.) [4, 11]: 1.2 ± 0.3 mm; Incidence [4, 9]: 66.7%; Ulcer Index (mm ± S.E.) [4, 9]: 1.4 ± 0.5 mm; inhibition at 1 mg/kg (platelet aggregation [2]; [7]): 51.3%; inhibition at 1 mg/kg (platelet aggregation [2]; [8]): 67.5%
CCCCC(C)n1c(C)c(C(=O)c2ccccc2)c2ccccc21 (stereo not shown) [(705), 3-Benzoyl-1-(2-hexyl)-2-methylindole]						Incidence [4, 9]: 0%; Ulcer Index (mm ± S.E.) [4, 9]: 0 mm
Cc1c(C(=O)c2ccccc2)c2cc(O)ccc2n1C(C)CO (stereo not shown) [(117), 3-Benzoyl-5-hydroxy-1-(1-hydroxy-2-propyl)-2-methylindole]	72.1%	2.2%	100%	8.6%	0.25 µg/mL (≈ 0.808 µM)	
CCSCC(C)n1c(C)c(C(=O)c2ccccc2)c2ccccc21 (stereo not shown) [(400), 3-Benzoyl-1-(1-ethylthio-2-propyl)-2-methylindole]	100%	100%	100%	67.4%	0.5 µg/mL (≈ 1.48 µM)	
CCC(CO)n1c(C)c(C(=O)c2ccccc2)c2ccccc21 (stereo not shown) [(101), 3-Benzoyl-1-(1-hydroxy-2-butyl)-2-methylindole]	100%	100%	99%	99%	0.1 µg/mL (≈ 0.325 µM)	
COCC(C)n1c(C)c(C(=O)c2ccccc2)c2cc(OC)ccc21 (stereo not shown) [(318), 3-Benzoyl-5-methoxy-1-(1-methoxy-2-propyl)-2-methylindole]	97.7%	0.5%	100%	14%	0.75 µg/mL (≈ 2.22 µM)	
Cc1c(C(=O)c2ccccc2)c2ccccc2n1C(C)CCO (stereo not drawn) [(105), 3-Benzoyl-l-(4-hydroxy-2-butyl)-2-methylindole]	100%	100%	100%	100%	0.075 µg/mL (≈ 0.244 µM)	
CCOCCC(C)n1c(C)c(C(=O)c2ccccc2)c2ccccc21 (stereo not shown) [(307), 3-Benzoyl-1-(4-ethoxy-2-butyl)-2-methylindole]	98.3%	100%	100%	100%	0.25 µg/mL (≈ 0.745 µM)	
Cc1c(C(=O)c2ccccc2)c2ccccc2n1C(C)CSc1ccccn1 (stereo not shown) [(405), 3-Benzoyl-2 methyl-1-[1-(2-pyridylthio)-2-propyl]indole]	100%	100%	100%	100%	0.5 µg/mL (≈ 1.29 µM)	
CCOCC(CC)n1c(C)c(C(=O)c2ccccc2)c2ccccc21 (stereo not shown) [(312), 3-Benzoyl-1-(1-ethoxy-2-butyl)-2-methylindole]	100%	100%	100%	100%	0.25 µg/mL (≈ 0.745 µM)	
COc1ccc2c(c1)c(C(=O)c1ccccc1)c(C)n2C(C)CO (stereo not shown) [(116), 3-benzoyl-1-(1-hydroxy-2-propyl)-5-methoxy-2-methylindole]	100%	0%	100%	0.7%	0.5 µg/mL (≈ 1.55 µM)	
CCC(COC(C)=O)n1c(C)c(C(=O)c2ccccc2)c2ccccc21 (stereo not shown) [(205), 1-(1-acetoxy-2-butyl)-3-benzoyl-2-methylindole]	100%	93.8%	100%	85.3%	0.1 µg/mL (≈ 0.286 µM)	
CCOCC(C)n1c(C)c(C(=O)c2ccccc2)c2ccccc21 (stereo not shown) [(302), 3-Benzoyl-1-(1-ethoxy-2-propyl)-2-methylindole]			100%	100%	0.055 µg/mL (≈ 0.171 µM)	Incidence [4, 11]: 33.3%; Ulcer Index (mm ± S.E.) [4, 11]: 0.3 ± 0.2 mm; Incidence [4, 9]: 50%; Ulcer Index (mm ± S.E.) [4, 9]: 0.9 ± 0.3 mm
CCSCCC(C)n1c(C)c(C(=O)c2ccccc2)c2ccccc21 (stereo not shown) [(409), 3-Benzoyl-1-(4-ethylthio-2-butyl)-2-methylindole]	100%	100%	100%	48.8%	0.25 µg/mL (≈ 0.711 µM)	
